Patent publication US10087191B2, “Piperidine derivative and preparation method and pharmaceutical use thereof” (Jiangsu Hengrui Medicine Co., Ltd., priority 2015, dated 2018)

How the values were obtained:
ERα = ERα (Homo sapiens (Human), UniProt P03372); assay: Degradation effect on ERα in MCF-7 cells (ERα Duoset ELISA); type: cell-based; details: MCF-7 cells; read-out: IC50 value of the degradation effect on ERα
Protocol: In order to determine the degradation effect on ER induced by the compounds of the present invention, the following method was used to determine the degradation effect of the compounds of the present invention on ER.
MCF-7 cell line (TChu 74, Cell Bank of Chinese Academy of Sciences typical culture preservation Committee)
ERα Duoset Kit (#DYC5715E, R&D System)
MCF-7 cells were incubated in DMEM/F-12 medium containing 10% FBS.
On the first day of the experiment, MCF-7 cells were resuspended in DMEM/F-12 medium containing 10% FBS treated by activated carbon, then inoculated into a 48-well plate with a density of 50,000 cells/well and incubated for 22-24 hours.
On the second day of the experiment, the test compound was diluted with medium and added to a 48-well plate. The ERα-capture antibody was diluted to 1 μg/ml with PBS, and added to a 96-well plate at 100 μl/well. The plate was sealed and coated overnight at room temperature.
On the third day of the experiment, the coated 96-well plate was washed twice with PBS, added with a sealing solution (1% BSA in PBS) at 110 μl/well and sealed for 1 hour at room temperature. The 48-well plate was washed once with PBS, and the residual liquid was removed. Then, 60 μl of lysis (6 M urea, 1 mM EDTA, 0.5% Triton X-100, 1 mM PMSF, Protease Inhibitor cocktail) was added to each well. After lysis on ice for 15 minutes, the diluent (1 mM EDTA, 0.5% TritonX-100 dissolved in PBS) was added. The cell-diluted lysate was transferred to a 96-well plate at 100 μl/well, then the plate was incubated at room temperature for 2 hours. The diluted primary antibody was added after the plate was washed 4 times with a washing liquid (PBST). After incubation for 1 hour, the 96-well plate was washed 4 times, and the second antibody was added, then the plate was incubated for 30 minutes. After the plate was washed with a washing liquid, TMB chromogenic solution was added and incubated for 15 minutes. The reaction was stopped by the addition of 1 M H2SO4, then the light absorption at 450 nm was read.

estrogen receptor (ER) = estrogen receptor (ER) (Homo sapiens (Human), UniProt P03372); assay: Inhibition of the binding of estrogen (E) to estrogen receptor (ER), MCF-7/ERE-luciferase reporter cells; type: cell-based; details: MCF-7/ERE-luciferase cells, 0.1 nM estradiol, 24 hours; read-out: IC50 value of inhibition effect on the binding of E to ER
MCF7 cells = assay: Inhibition of the proliferation of MCF7 cells (Cell Titer-Glo); type: cell-based; details: Homo sapiens, MCF-7 cells, 72 hours, read-out: IC50 value of inhibition effect on the proliferation of MCF7 cells
Summary of the method: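 Viability by Cell Titer-Glo luminescence; IC50 from signal versus log concentration.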

[1] = Pharmacokinetics assay in BALB/C nude mice after intragastrical administration; type: in vivo; details: female, mouse, plasma, po, 3 mg/kg; for AUC: read-out: Area Under Curve AUC; for CL/F: read-out: Clearance CL/F (converted); for half-life: read-out: Half-Life t½ (converted); for MRT: read-out: Mean Residence Time MRT; for Cmax: read-out: Plasma Conc. Cmax
Protocol: BALB/C nude mice were used as test animals. The drug concentration in plasma at different time points was determined by LC/MS/MS after intragastrical administration of the compounds of Examples 10, 14, 20, 21, 57, 68, 71, 73, 74, 76 and 89 to BALB/C nude mice. The pharmacokinetic behavior of the compounds of the present invention was studied and evaluated in BALB/C nude mice.
Ninety-nine (99) female BALB/C nude mice were equally divided into 11 groups, which were purchased from SINO-BRITSH SIPPR/BK LAB. ANIMAL LTD., CO, with Certificate No.: SCXK (Shanghai) 2008-0016.
The appropriate amount of each test compound was weighed, and successively added with 9% PEG400+0.5% tween 80+0.5% PVP+90% aqueous solution of 0.5% CMC.
After an overnight fast, 99 female BALB/C nude mice were equally divided into 11 groups, and administered the test compounds intragastrically at an administration volume of 0.2 mL/10 g.
Blood (0.1 mL) was sampled (3 mice at each time point) at 0.5, 1.0, 2.0, 4.0, 6.0, 8.0, 11.0 and 24.0 hours after administration. The samples were stored in heparinized test tubes, and centrifuged for 10 minutes at 3,500 rpm to separate the blood plasma. The plasma samples were stored at −20° C. The plasma concentration of the test compounds in BALB/C nude mice after intragastrical administration was determined by LC/MS/MS.
Pharmacokinetic parameters of the compounds of Examples 10, 14, 20, 21, 57, 68, 71, 73, 74, 76 and 89 of the present invention are shown below.

ERα, sequence (P03372 whole entry): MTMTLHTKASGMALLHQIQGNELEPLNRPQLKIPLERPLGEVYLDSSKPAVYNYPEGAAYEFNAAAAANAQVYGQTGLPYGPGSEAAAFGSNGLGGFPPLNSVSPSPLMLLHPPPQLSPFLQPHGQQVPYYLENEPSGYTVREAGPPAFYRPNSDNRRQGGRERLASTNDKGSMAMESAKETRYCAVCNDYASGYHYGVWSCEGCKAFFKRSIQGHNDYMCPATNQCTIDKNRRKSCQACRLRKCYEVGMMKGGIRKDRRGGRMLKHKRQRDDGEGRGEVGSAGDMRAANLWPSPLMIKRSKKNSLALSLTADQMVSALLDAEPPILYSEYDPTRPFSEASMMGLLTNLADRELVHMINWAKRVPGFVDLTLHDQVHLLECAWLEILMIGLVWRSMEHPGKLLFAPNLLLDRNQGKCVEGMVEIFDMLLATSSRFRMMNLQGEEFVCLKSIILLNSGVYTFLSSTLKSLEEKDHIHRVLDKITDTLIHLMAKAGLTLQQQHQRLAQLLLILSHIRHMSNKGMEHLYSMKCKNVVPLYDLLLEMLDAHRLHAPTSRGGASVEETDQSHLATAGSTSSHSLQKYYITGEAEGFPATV
estrogen receptor (ER), sequence (P03372 whole entry): as above

With C[C@@H]1Cc2cc(-c3cnn(C(F)F)c3)ccc2[C@@H](c2c(F)cc(/C=C/C(=O)O)cc2F)N1CC(C)(C)F [Example 14, (E)-3-(4-((1S,3R)-6-(1-(difluoromethyl)-1H-pyrazol-4-yl)-2-(2-fluoro-2-methylpropyl)-3-methyl-1,2,3,4-tetrahydroisoquinolin-1-yl)-3,5-difluorophenyl)acrylic acid] the DC50 (ERα) was 0.64 nM, the IC50 (estrogen receptor (ER)) was 0.29 nM and the IC50 (MCF7 cells) was 0.06 nM. It also gave an AUC [1] of 32.7 µg·h/mL, a CL/F [1] of 1.53 L/h/kg and a half-life [1] of 4.74 h. For the same molecule, the MRT [1] was 5.93 h and the Cmax [1] was 6.75 µg/mL.
For C[C@@H]1Cc2cc(-c3cnn(C)c3)ccc2[C@@H](c2c(F)cc(/C=C/C(=O)O)cc2F)N1CC(C)(C)F [Example 57, (E)-3-(3,5-difluoro-4-((1S,3R)-2-(2-fluoro-2-methylpropyl)-3-methyl-6-(1-methyl-1H-pyrazol-4-yl)-1,2,3,4-tetrahydroisoquinolin-1-yl)phenyl)acrylic acid], the DC50 (ERα) was 0.1 nM, the IC50 (estrogen receptor (ER)) was 0.33 nM and the IC50 (MCF7 cells) was 0.01 nM. The AUC [1] was 15.1 µg·h/mL, the CL/F [1] was 3.31 L/h/kg and the half-life [1] was 2.78 h. It also gave an MRT [1] of 3.23 h and a Cmax [1] of 5.07 µg/mL.
C[C@@H]1Cc2c(oc3ccccc23)[C@@H](c2c(F)cc(/C=C/C(=O)O)cc2F)N1CC(C)(C)F [Example 68, (E)-3-(3,5-difluoro-4-((1R,3R)-2-(2-fluoro-2-methylpropyl)-3-methyl-1,2,3,4-tetrahydrobenzofuro[2,3-c]pyridin-1-yl)phenyl)acrylic acid] showed a DC50 (ERα) of 0.11 nM, an IC50 (estrogen receptor (ER)) of 0.31 nM and an IC50 (MCF7 cells) of 0.04 nM. It also gave an AUC [1] of 13.2 µg·h/mL, a CL/F [1] of 6.32 L/h/kg and a half-life [1] of 2.32 h. For the same molecule, the MRT [1] was 3.7 h and the Cmax [1] was 3.42 µg/mL.
C[C@@H]1Cc2cc3c(cc2[C@@H](c2c(F)cc(/C=C/C(=O)O)cc2F)N1CC(C)(C)F)OCO3 [Example 71, (E)-3-(3,5-difluoro-4-((5S,7R)-6-(2-fluoro-2-methylpropyl)-7-methyl-5,6,7,8-tetrahydro-[1,3]dioxolo[4,5-g]isoquinolin-5-yl)phenyl)acrylic acid] gave a DC50 (ERα) of 0.06 nM, an IC50 (estrogen receptor (ER)) of 0.74 nM and an IC50 (MCF7 cells) of 0.12 nM. For the same molecule, the AUC [1] was 8.81 µg·h/mL, the CL/F [1] was 9.45 L/h/kg and the half-life [1] was 1.59 h. It also gave an MRT [1] of 2.62 h and a Cmax [1] of 4.13 µg/mL.
With C[C@@H]1Cc2c(oc3cccc(F)c23)[C@@H](c2c(F)cc(/C=C/C(=O)O)cc2F)N1CC(C)(C)F [Example 74, (E)-3-(3,5-difluoro-4-((1R,3R)-5-fluoro-2-(2-fluoro-2-methylpropyl)-3-methyl-1,2,3,4-tetrahydrobenzofuro[2,3-c]pyridin-1-yl)phenyl)acrylic acid] the DC50 (ERα) was 1.35 nM, the IC50 (estrogen receptor (ER)) was 0.21 nM and the IC50 (MCF7 cells) was 0.09 nM. For the same molecule, the AUC [1] was 5.85 µg·h/mL, the CL/F [1] was 8.54 L/h/kg and the half-life [1] was 3.16 h. The MRT [1] was 2.41 h and the Cmax [1] was 2.53 µg/mL.
With CC1Cc2cc3ocnc3cc2C(c2c(F)cc(/C=C/C(=O)O)cc2F)N1CC(C)(C)F [Example 81, (E)-3-(3,5-difluoro-4-((5S,7R/5R,7S)-6-(2-fluoro-2-methylpropyl)-7-methyl-5,6,7,8-tetrahydrooxazolo[5,4-g]isoquinolin-5-yl)phenyl)acrylic acid] the DC50 (ERα) was 1.62 nM, the IC50 (estrogen receptor (ER)) was 4.06 nM and the IC50 (MCF7 cells) was 3.4 nM.
With CC1Cc2c(oc3cc(F)ccc23)C(c2c(F)cc(/C=C/C(=O)O)cc2F)N1CC(C)(C)F [Example 86, (E)-3-(3,5-difluoro-4-((1R,3R/1S,3S)-7-fluoro-2-(2-fluoro-2-methylpropyl)-3-methyl-1,2,3,4-tetrahydrobenzofuro[2,3-c]pyridin-1-yl)phenyl)acrylic acid] the DC50 (ERα) was 7.13 nM, the IC50 (estrogen receptor (ER)) was 4.47 nM and the IC50 (MCF7 cells) was 0.64 nM.
For CC1Cc2c(oc3ccc(-c4cn[nH]c4)cc23)C(c2c(F)cc(/C=C/C(=O)O)cc2F)N1CC(C)(C)F [Example 88, (E)-3-(3,5-difluoro-4-((1R,3R/1S,3S)-2-(2-fluoro-2-methylpropyl)-3-methyl-6-(1H-pyrazol-4-yl)-1,2,3,4-tetrahydrobenzofuro[2,3-c]pyridin-1-yl)phenyl)acrylic acid], the DC50 (ERα) was 1.61 nM, the IC50 (estrogen receptor (ER)) was 1.22 nM and the IC50 (MCF7 cells) was 0.67 nM.
For CC1Cc2c(oc3ccc(-c4cnn(C)c4)cc23)C(c2c(F)cc(/C=C/C(=O)O)cc2F)N1CC(C)(C)F [Example 89, (E)-3-(3,5-difluoro-4-((1R,3R/1S,3S)-2-(2-fluoro-2-methylpropyl)-3-methyl-6-(1-methyl-1H-pyrazol-4-yl)-1,2,3,4-tetrahydrobenzofuro[2,3-c]pyridin-1-yl)phenyl)acrylic acid], the DC50 (ERα) was 0.31 nM, the IC50 (estrogen receptor (ER)) was 0.21 nM and the IC50 (MCF7 cells) was 0.08 nM. For the same molecule, the AUC [1] was 7.71 µg·h/mL, the CL/F [1] was 6.49 L/h/kg and the half-life [1] was 3.97 h. The MRT [1] was 5.69 h and the Cmax [1] was 1.27 µg/mL.
For CC1Cc2cc3[nH]ncc3cc2C(c2c(F)cc(/C=C/C(=O)O)cc2F)N1CC(C)(C)F [Example 91, (E)-3-(3,5-difluoro-4-((5S,7R/5R,7S)-6-(2-fluoro-2-methylpropyl)-7-methyl-5,6,7,8-tetrahydro-1H-pyrazolo[3,4-g]isoquinolin-5-yl)phenyl)acrylic acid], the DC50 (ERα) was 2.33 nM, the IC50 (estrogen receptor (ER)) was 1.88 nM and the IC50 (MCF7 cells) was 0.83 nM.
C[C@@H]1Cc2c(ccc3[nH]ncc23)[C@@H](c2c(F)cc(/C=C/C(=O)O)cc2F)N1CC(C)(C)F [Example 94, (E)-3-(3,5-difluoro-4-((6S,8R)-7-(2-fluoro-2-methylpropyl)-8-methyl-6,7,8,9-tetrahydro-3H-pyrazolo[4,3-f]isoquinolin-6-yl)phenyl)acrylic acid] gave a DC50 (ERα) of 0.02 nM, an IC50 (estrogen receptor (ER)) of 0.04 nM and an IC50 (MCF7 cells) of 0.03 nM.
With CCn1cc(-c2ccc3oc4c(c3c2)C[C@@H](C)N(CC(C)(C)F)[C@@H]4c2c(F)cc(/C=C/C(=O)O)cc2F)cn1 [Example 97, (E)-3-(4-((1R,3R)-6-(1-ethyl-1H-pyrazol-4-yl)-2-(2-fluoro-2-methylpropyl)-3-methyl-1,2,3,4-tetrahydrobenzofuro[2,3-c]pyridin-1-yl)-3,5-difluorophenyl)acrylic acid] the DC50 (ERα) was 6.11 nM, the IC50 (estrogen receptor (ER)) was 0.24 nM and the IC50 (MCF7 cells) was 0.2 nM.
